Several values for one entry are separate records, joined by “and”; a condition that tells them apart may be missing. Identical values can stand only once. Blank lines part the entries; values can stand above or below the compound they belong to.
Test system: 616215-338-R-J1-PDC complex spheroid growth, % test/control
Assay: Anticancer human tumor 616215-338-R-J1-PDC patient-derived colon adenocarcinoma cell line growth inhibition [Asc]
Settings: for viability, T/C: stronger effect = lower value
Method: Multicellular complex tumor spheroid response to apoptosis pathway targeting inhibitors Alrizomadlin, Pelcitoclax, and Dasminapant in combination with a variety of drugs and investigational agents in selected tumor cell lines
The MDM2 inhibitor alrizomadlin, the Bcl-2/Bcl-xL inhibitor pelcitoclax, and the IAPs inhibitor dasminapant were evaluated both individually and in combination with standard of care and investigational anticancer small molecules within a complex spheroid model of solid tumors. . Complex spheroids include a stromal component modeled by human endothelial cells (HUVEC) and fibroblasts modeled by human mesenchymal stem cells (MSCs). The concentration ranges selected for each drug and investigational agent were based upon clinically achievable concentrations if the clinical Cmax of the agent was known.
Compounds. The drugs and investigational agents: alrizomadlin (APG-115; NSC831270), pelcitoclax (APG-1252; NSC835773), dasminapant (APG-1387;NSC834197), TAK-243 (NSC785004), copanlisib (NSC809693), olaparib (NSC753686), talazoparib (NSC767125), cobimetinib (NSC 768068), eltanexor (KPT-8602, NSC 794443), abemaciclib (NSC 768073), sotorasib (NSC818433), adagrasib (NSC 831453), MRTX-1133 (NSC 836407), Iadademestat (ORY1001, NSC 806812), and RMC-4630 (NSC839698), were obtained from the NCI Developmental Therapeutics Program Chemical Repository. The FDA-approved anticancer drug set is available from the Developmental Therapeutics Program at https://dtp.cancer.gov/organization/dscb/obtaining/available plates.htm. […] The stock solutions were prepared in dimethyl sulfoxide (DMSO, Sigma-Aldrich, St. Louis, MO, cat. D2650) at 800-fold the tested concentration and stored at -70 degrees C prior to their use. All drugs and investigational agents were tested over a range starting from a high concentration at or near the clinical Cmax and decreasing in half-log increments. If the clinical Cmax for an agent had not been determined, the highest concentration tested was 10 microM.
The patient-derived cancer (PDC) cell lines include five colon adenocarcinomas: 186277-243-T-J2-PDC, 616215-338-R-J1-PDC, 439559-082-T-J2-PDC, 463943-066-T-J2-PDC, and 519858-162-T-J1-PDC; three pancreatic carcinomas: 323965-272-R-J2-PDC, 521955-158-R6-J3-PDC, and 521955-158-R2-J5-PDC; two uterine sarcomas: 327498-152-R-J2-PDC and 993429-296-R-J1-PDC; two rhabdomyosarcomas: 755483-174-R-J1-PDC and 772245-204-R-J1-PDC; two soft tissue sarcomas: 126254-015-R-J1-PDC and 494315-158-R-J1-PDC; two malignant fibrous histiocytomas: 317291-083-R-J1-PDC and 596521-263-R-J1-PDC; two breast carcinomas: 171881-019-R-J1-PDC and 885512-296-R-J2-PDC; and one ovarian carcinoma: 6556581-035-R-J-PDC were obtained from the NCI PDMR, (https://pdmr.cancer.gov). The established cell lines HSSY-2 synovial sarcoma (RRID:CVCL 8719), SYO-1 synovial sarcoma (RRID:CVCL_7146), MPNST malignant peripheral neural sheath tumor were obtained from the Sloan Kettering Institute. The following established cell lines were purchased from the American Type Culture Collection (ATCC, Manassas, VA), Sor the received from the NCI repository:, PANC-1 pancreatic carcinoma (CRL-1469, RRID:CVCL_0480), OVCAR-5 ovarian carcinoma (RRID:CVCL_1628), OVCAR-8 ovarian carcinoma (RRID:CVCL_1629), , MCF-7 breast carcinoma (CRL-12584, RRID:CVCL_0031), MDA-MB-231 breast carcinoma (CRL-12532, RRID:CVCL_0062), NCI-H1876 small cell lung carcinoma (CRL-5902, RRID:CVCL_1503), NCI-H510A small cell lung carcinoma (HTB-184, RRID:CVCL_1565), NCI-H1417 (CRL-5869, RRID:CVCL_1469), and NCI-H196 small cell lung carcinoma (CRL-5823, RRID:CVCL_1509). Dr. Peter Houghton (Greehey Children's Cancer Research Institute, University of Texas Health Science Center, San Antonio, TX) provided Rh-18 rhabdomyosarcoma (RRID:CVCL_1659). Pooled donor human umbilical vein endothelial cells (HUVEC, Lonza, cat. CC-2519) and human mesenchymal stem cells (hMSC, Lonza, cat. PT-2501) were purchased from Lonza (Walkersville, MD).
Cell Culture. […]
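Further: spheroids exposed to agents for seven days before readout.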
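Wherever viability, T/C is given: 100% = DMSO vehicle control viability.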

IC50 (curve of compound): 3120 nM and > 10000 nM
SMILES: C#Cc1c(F)ccc2cc(O)cc(-c3ncc4c(N5CC6CCC(C5)N6)nc(OCC56CCCN5CC(F)C6)nc4c3F)c12 (configuration not stated)
viability, T/C (compound 0.0316 µM): 105% and 96.2% and 99%
viability, T/C (compound 0.1 µM): 96% and 104% and 102%
viability, T/C (compound 0.316 µM): 104% (2×) and 94.8%
viability, T/C (compound 1 µM): 106% and 113% and 101%
viability, T/C (compound 3.16 µM): 49.3% and 108% and 101%

SMILES: C=C(F)C(=O)N1CCN(c2nc(OCC3CCCN3C)nc3c2CCN(c2cccc4cccc(Cl)c24)C3)CC1CC#N (configuration not stated)
viability, T/C (compound 0.0316 µM): 75.3% and 90.8% and 99.4%
viability, T/C (compound 0.1 µM): 72.6% and 95.6% and 102%
viability, T/C (compound 0.316 µM): 59.3% and 97.8% and 100%
viability, T/C (compound 1 µM): 38.8% and 98.2% and 107%
viability, T/C (compound 10 µM): 0.82% and 0.6% and 0.47%

IC50 (curve of compound): > 10000 nM and 3750 nM
SMILES: C=CC(=O)N1CCN(c2nc(=O)n(-c3c(C)ccnc3C(C)C)c3nc(-c4c(O)cccc4F)c(F)cc23)C(C)C1 (configuration not stated)
viability, T/C (compound 0.0316 µM): 97% and 99.6% and 107%
viability, T/C (compound 0.1 µM): 95.3% and 101% and 91.9%
viability, T/C (compound 0.316 µM): 102% and 98.2% and 97.2%
viability, T/C (compound 1 µM): 102% and 100% and 74.5%
viability, T/C (compound 3.16 µM): 106% and 109% and 52.6%
viability, T/C (compound 10 µM): 102% and 106% and 35.4%

IC50 (curve of compound): 965 nM and > 3000 nM
SMILES: CCN1C(C(=O)NC23CCC(C(=O)O)(CC2)CC3)C(c2cccc(Cl)c2F)C2(C(=O)Nc3cc(Cl)ccc32)C12CCCCC2 (configuration not stated)
viability, T/C (compound 0.00949 µM): 106% and 100%
viability, T/C (compound 0.03 µM): 96.6% [middle of 15 runs]

IC50 (curve of compound): > 1000 nM and 543 nM
SMILES: CCN1CCN(Cc2ccc(Nc3ncc(F)c(-c4cc(F)c5nc(C)n(C(C)C)c5c4)n3)nc2)CC1
viability, T/C (compound 0.00316 µM): 98.2% and 91.4% and 109%
viability, T/C (compound 0.01 µM): 97.2% and 108% and 113%
viability, T/C (compound 0.0316 µM): 96.5% and 104% and 78.5%
viability, T/C (compound 0.1 µM): 102% and 106% and 82.5%
viability, T/C (compound 0.316 µM): 122% and 102% and 65.8%
viability, T/C (compound 1 µM): 130% and 117% and 34.9%

IC50 (curve of compound): > 1000 nM
SMILES: CNC(C)C(=O)NC1CN(S(=O)(=O)c2cccc(S(=O)(=O)N3CCC4CCC(C(=O)NC(c5ccccc5)c5ccccc5)N4C(=O)C(NC(=O)C(C)NC)C3)c2)CCC2CCC(C(=O)NC(c3ccccc3)c3ccccc3)N2C1=O (configuration not stated)
viability, T/C (compound 0.01 µM): 105% [middle of 9 runs]
viability, T/C (compound 0.1 µM): 101% [middle of 9 runs]
viability, T/C (compound 0.316 µM): 102% [middle of 9 runs]
viability, T/C (compound 1 µM): 101% [middle of 9 runs]

IC50 (curve of compound): 305 nM and 281 nM and 62.4 nM
SMILES: COc1c(OCCCN2CCOCC2)ccc2c3n(c(=NC(=O)c4cnc(N)nc4)nc12)CCN3
viability, T/C (compound 0.00316 µM): 102% (2×) and 105%
viability, T/C (compound 0.01 µM): 107% and 102% and 98.3%
viability, T/C (compound 0.0316 µM): 111% and 100% and 68%
viability, T/C (compound 0.1 µM): 95.3% and 105% and 36.9%
viability, T/C (compound 0.316 µM): 48.7% and 43.9% and 18.3%
viability, T/C (compound 1 µM): 28.9% and 26% and 11.2%

IC50 (compound alone, run of 10/11/2022): 1.96 µM [middle of 13 runs]
SMILES: Cc1c(S(C)(=O)=O)c(-c2cc(F)cc(N3CCN(c4ccc(NS(=O)(=O)c5ccc(NC(CCN6CCC(C(=O)OCCCP(=O)(O)O)CC6)CSc6ccccc6)c(S(=O)(=O)C(F)(F)F)c5)cc4)CC3)c2)c(-c2ccc(Cl)cc2)n1C(C)C (configuration not stated)
viability, T/C (compound 0.1 µM): 89.8% [middle of 14 runs]
viability, T/C (compound 0.316 µM): 88.1% [middle of 14 runs]
viability, T/C (compound 1 µM): 69.6% [middle of 14 runs]
viability, T/C (compound 3.16 µM): 38% [middle of 13 runs]
viability, T/C (compound 10 µM): 27.6% [middle of 14 runs]

IC50 (curve of compound): 871 nM and > 3000 nM
SMILES: Cc1nc(N2CCC3(CC2)COC(C)C3N)c(CO)nc1Sc1ccnc(N)c1Cl (configuration not stated)
viability, T/C (compound 0.00949 µM): 102% and 94% and 101%
viability, T/C (compound 0.03 µM): 90.5% and 98.1% and 102%
viability, T/C (compound 0.0949 µM): 104% and 105% and 103%
viability, T/C (compound 0.3 µM): 81.2% and 99.7% and 101%
viability, T/C (compound 0.949 µM): 48% and 102% (2×)
viability, T/C (compound 3 µM): 11.8% and 95.5% and 91.3%

IC50 (curve of compound): > 100 nM
SMILES: Cn1ncnc1[C@H]1c2n[nH]c(=O)c3cc(F)cc(c23)N[C@@H]1c1ccc(F)cc1
viability, T/C (compound 0.000316 µM): 93.4% and 104% and 99.2%
viability, T/C (compound 0.001 µM): 96.2% and 100% and 92.5%
viability, T/C (compound 0.00316 µM): 97.1% and 98.9% and 93.8%
viability, T/C (compound 0.01 µM): 99% and 106% and 100%
viability, T/C (compound 0.0316 µM): 95.7% and 100% and 102%
viability, T/C (compound 0.1 µM): 108% (2×) and 100%

SMILES: NC(=O)C(=Cn1cnc(-c2cc(C(F)(F)F)cc(C(F)(F)F)c2)n1)c1cncnc1
viability, T/C (compound 0.000949 µM): 97.1% and 89.2% and 43.2%
viability, T/C (compound 0.003 µM): 96.8% and 85% and 52.7%
viability, T/C (compound 0.00949 µM): 99.3% and 95.9% and 24.4%
viability, T/C (compound 0.03 µM): 100% and 86.7% and 29.2%
viability, T/C (compound 0.0949 µM): 95.2% and 81.8% and 20.7%
viability, T/C (compound 0.3 µM): 97.6% and 91.7% and 30.1%

IC50 (curve of compound): > 100 nM
SMILES: NC1CCC(NC2CC2c2ccccc2)CC1 (configuration not stated)
viability, T/C (compound 0.000316 µM): 96.5% and 100% and 109%
viability, T/C (compound 0.001 µM): 102% (2×) and 97.4%
viability, T/C (compound 0.00316 µM): 90.4% and 95.5% and 101%
viability, T/C (compound 0.01 µM): 92.3% and 96.8% and 93.5%
viability, T/C (compound 0.0316 µM): 91.6% and 91.8% and 99.5%
viability, T/C (compound 0.1 µM): 92.8% and 94.4% and 97.4%

IC50 (curve of compound): > 10000 nM
SMILES: O=C(c1cc(Cc2n[nH]c(=O)c3ccccc23)ccc1F)N1CCN(C(=O)C2CC2)CC1
viability, T/C (compound 0.0316 µM): 97.1% and 97.4% and 112%
viability, T/C (compound 0.1 µM): 99.8% and 94.7% and 98.3%
viability, T/C (compound 0.316 µM): 97.7% and 99.4% and 100%
viability, T/C (compound 1 µM): 96.5% and 94.7% and 99.3%
viability, T/C (compound 3.16 µM): 96.8% and 106% and 90.6%
viability, T/C (compound 10 µM): 91.1% and 90.2% and 89.1%

IC50 (curve of compound): 113 nM and 114 nM and 46.2 nM
SMILES: O=C(c1ccc(F)c(F)c1Nc1ccc(I)cc1F)N1CC(O)([C@@H]2CCCCN2)C1
viability, T/C (compound 0.00316 µM): 89.5% and 99.8% and 108%
viability, T/C (compound 0.01 µM): 84.3% and 101% and 100%
viability, T/C (compound 0.0316 µM): 74.5% and 93.8% and 67.1%
viability, T/C (compound 0.1 µM): 54.4% and 51.2% and 15.8%
viability, T/C (compound 0.316 µM): 22.1% and 19.3% and 4.03%
viability, T/C (compound 1 µM): 1.33% and 0.76% and 3.69%
